Test results as given in patent publication EP0606044A1, “Lactones compounds useful as pharmaceuticals” (SANDOZ LTD., priority 1992, dated 1994).
pIC50: −log10 of the molar value.

Key:
[1] = Solubility (characteristics of the metabolite); type: physicochemical
Text: Formula I', which is formula I in which R₄ and R₅ are methoxy, R₆ is OH, -a-b- is cis- -CH=CH-, c is C=O, -d-e- is -CHOH-CHOH-, -f-g- is trans- -CH=CH- and the asymmetric carbon atoms marked * all have the S-configuration [drawing 2] is the structure which has been assigned to the novel metabolite designated 87-250904-F1 and having the following characteristics: White needles (from methanol/water 1:1), m.p. […] HPLC : Column : LiChrospher 100 RP-8 (5µm) (LiChroCART 125-4, Merck) Mobile phase: acetonitrile/water/orthophosphoric acid 350:650:0.175 (by vol.) Flow rate: 1.0 ml/min Detection: UV 210 nm Retention time: 3.8 min.

THP-1 cells = test: Cytokine release from THP-1 cells (γ-interferon/LPS stimulated; ELISA, RIA, LDH, DNA); type: cell-based; settings: Homo sapiens, γ-interferon, LPS, 40 hours, read-out: IC₅₀ value in the THP-1 test (concentration of compound which inhibits to 50 % the release of IL-1β)
Method: 1. Cytokine Release from THP-1 Cells
The THP-1 cell line is generally available and is described by Tsuchiya et al, Int. J. Cancer 26 171-176 (1980). 900 µl THP-1 cells (0.5 x 10⁶ cells) together with 100 U γ-interferon/0.9 ml RPMI 1640 medium (containing 2 mM L-glutamine and 5 % heat-inactivated foetal calf serum) are pipetted into 24 well culture plates. 100 µl of the compound to be tested are then added. After 3 hours at 37°C in 5 % CO2/95 % air, 10 µl lipopolysaccharide 500 µg/ml is added and the incubation continued for a further 40 hours. Appropriate controls (with and without stimulus, solvent) are also included. The media are then removed and clarified by centrifugation at 1000 g for 10 min. 1.0 ml digitonin 0.01 % is added to the wells to lyse the cells which are loosened by scraping with a rubber policeman and left at 4°C for 10 min. […] IL-1β, IL-6 and TNF-α assays are determined using commercially available ELISA kits (Cistron), PGE2 is measured using a standard RIA and DNA fluorimetrically using DAPI (4',6-diamidino-2-phenylindole.2HCl) […]
For the above uses the required dosage will of course vary depending on the mode of administration, the particular condition to be treated and the effect desired. […] It has been determined that the compound of Formula I' has an IC₅₀ value in the THP-1 test (concentration of compound which inhibits to 50 % the release of IL-1β) of 0.06 µM.

| Compound | Solubility in methanol, DMSO, chloroform ([1]; methanol, DMSO, chloroform) | Solubility in water ([1]; water) | pIC50 (THP-1 cells) |
| --- | --- | --- | --- |
| COc1cc(O)c2c(c1OC)/C=C/C[C@H](O)[C@H](O)C(=O)/C=C\C[C@H](C)OC2=O [Formula I', [3S-(3R*, 5Z, 8R*, 9R*, 11E)]-3,4,9,10-tetrahydro-8,9,16-trihydroxy-13,14-dimethoxy-3-methyl-1H[2] benzoxacyclotetradecin-1,7[8H] dione] | readily soluble | Almost insoluble |  |
| COc1cc(O)c2c(c1OC)/C=C/C[C@H](O)[C@H](O)C(=O)/C=C\C[C@H](C)OC2=O [Formula I'] |  |  | 7.22 |
